Here are results for 60 compounds from ChEMBL document CHEMBL5241054, “Effective anti-aromatase therapy to battle against estrogen-mediated breast cancer: Comparative SAR/QSAR assessment on steroidal aromatase inhibitors” (Eur J Med Chem, 2020).

The target in the assay is T1, Aromatase (Homo sapiens, UniProt P11511).
T1 sequence (P11511 whole entry): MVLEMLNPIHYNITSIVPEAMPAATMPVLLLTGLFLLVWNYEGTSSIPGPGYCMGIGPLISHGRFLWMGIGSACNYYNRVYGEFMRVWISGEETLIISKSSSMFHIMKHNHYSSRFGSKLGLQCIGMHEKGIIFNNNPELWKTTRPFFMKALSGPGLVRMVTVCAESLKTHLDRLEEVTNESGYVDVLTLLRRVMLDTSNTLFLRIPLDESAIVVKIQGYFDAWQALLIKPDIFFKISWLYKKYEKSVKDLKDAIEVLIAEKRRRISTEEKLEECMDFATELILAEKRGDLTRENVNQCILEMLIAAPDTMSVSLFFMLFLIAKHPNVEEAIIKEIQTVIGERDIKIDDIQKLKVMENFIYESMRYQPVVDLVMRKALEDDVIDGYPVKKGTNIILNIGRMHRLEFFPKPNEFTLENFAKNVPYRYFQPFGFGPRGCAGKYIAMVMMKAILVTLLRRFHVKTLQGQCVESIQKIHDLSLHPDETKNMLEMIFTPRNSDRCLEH
`C[C@]12CCC(=O)C=C1C[C@H](CCc1ccccc1)[C@@H]1[C@@H]2CC[C@]2(C)C(=O)CC[C@@H]12` gave a half-inhibitory concentration (IC50) of 0.0402 µM.
Under `C[C@]12CCC(=O)C=C1C[C@H](Cc1ccccc1)[C@@H]1[C@@H]2CC[C@]2(C)C(=O)CC[C@@H]12` stands 0.0445 µM.
Compound `C[C@]12CC[C@H]3[C@@H]([C@H](Cc4ccccc4)CC4=CC(=O)CC[C@@]43C)[C@@H]1CC[C@@H]2O` gave an IC50 of 0.0395 µM.
Under `C[C@]12CC[C@H]3[C@@H]([C@H](CCc4ccccc4)CC4=CC(=O)CC[C@@]43C)[C@@H]1CC[C@@H]2O` stands 0.036 µM.
Compound `C[C@H]1C[C@@H]2[C@H](CC[C@]3(C)C(=O)CC[C@@H]23)[C@@]2(C)CCCC=C12` gave an IC50 of 0.037 µM.
`C[C@]12C=CC(=O)C(Sc3ccccc3)=C1CC[C@@H]1[C@@H]2CC[C@]2(C)C(=O)CC[C@@H]12` gave an IC50 of 0.5 µM.
Turning to `CC[C@]12C=CC(=O)C=C1C=C[C@H]1[C@@H]3CCC(=O)[C@@]3(C)CC[C@@H]12`, the IC50 is 0.36 µM.
Consider `CC[C@]12C=CC(=O)C=C1CC[C@H]1[C@@H]3CCC(=O)[C@@]3(C)CC[C@@H]12`, for which the IC50 was 0.16 µM.
With `CC[C@H]1C[C@@H]2[C@H](CC[C@]3(C)C(=O)CC[C@@H]23)[C@@]2(C)CCCC=C12`, the IC50 is 0.11 µM.
Compound `CC[C@]12CCC(=O)C=C1C=C[C@@H]1[C@@H]2CC[C@]2(C)C(=O)CC[C@@H]12` gave an IC50 of 0.3 µM.
`C[C@]12CCC(=O)C=C1[C@@H]1[C@H]([C@@H]3[C@@H]2CC[C@]2(C)C(=O)CC[C@@H]32)C1(F)F`: the IC50 is 1.15 µM.
In turn, `CC1(C)C[C@@]2(C)C(=CC1=O)[C@@H](Br)C[C@@H]1[C@@H]2CC[C@]2(C)C(=O)CC[C@@H]12` showed an IC50 of 0.1 µM.
Compound `C[C@]12CCC(=O)C(Sc3ccccc3)=C1CC[C@@H]1[C@@H]2CC[C@]2(C)C(=O)CC[C@@H]12` had a half-inhibitory concentration (IC50) of 0.18 µM.
Under `CC1(C)C[C@@]2(C)C(=CC1=O)[C@H](Br)C[C@@H]1[C@@H]2CC[C@]2(C)C(=O)CC[C@@H]12` stands 0.11 µM.
As for `C[C@]12CC[C@H]3[C@@H](CCC4=CC(=O)CC[C@@]43CO)[C@@H]1CCC2=O`, it took 13 µM to reach half-maximal inhibition (IC50).
`C[C@]12CCC(=O)c3[nH]nc(c31)C[C@@H]1[C@@H]2CC[C@]2(C)C(=O)CC[C@@H]12` had an IC50 of 0.236 µM.
`C[C@]12CC[C@H]3[C@@H](C=CC45OC4C(=O)CC[C@]35C)[C@@H]1CCC2=O` (stereo not given in full) gave an IC50 of 15.3 µM.
`C[C@]12CCC(=O)c3c1c(nn3C/C=C/c1ccccc1)C[C@@H]1[C@@H]2CC[C@]2(C)C(=O)CC[C@@H]12` gave an IC50 of 0.899 µM.
In turn, `Cc1ccc(S(=O)(=O)N2[C@H]3[C@@H]4[C@H](CC[C@]5(C)C(=O)CC[C@@H]45)[C@@]4(C)CCC(=O)C=C4[C@H]32)cc1` (stereo not given in full) gave an IC50 of 92.9 µM.
For the compound `C[C@]12CCC(=O)C=C1[C@H](N=[N+]=[N-])C(O)[C@@H]1[C@@H]2CC[C@]2(C)C(=O)CC[C@@H]12` (stereo not given in full), inhibition was half-maximal at 47 µM (IC50).
Take `C[C@]12CC[C@H]3[C@@H](C=CC4=CC(=O)C=C[C@@]43CBr)[C@@H]1CCC2=O`: half-maximal inhibition (IC50) was put at 2.1 µM.
In turn, `C[C@]12CCC(=O)C=C1C(N=[N+]=[N-])=C[C@@H]1[C@@H]2CC[C@]2(C)C(=O)CC[C@@H]12` had an IC50 of 4.55 µM.
Under `C[C@]12CCC(=O)C=C1[C@H](O)C(N=[N+]=[N-])[C@@H]1[C@@H]2CC[C@]2(C)C(=O)CC[C@@H]12` (stereo not given in full) stands 3.03 µM.
For the compound `C[C@]12CC[C@H]3[C@@H](C=CC4=CC(=O)CC[C@@]43CCl)[C@@H]1CCC2=O`, the IC50 was 0.76 µM.
The same measure for `C[C@]12CC[C@H]3[C@@H](C=CC4=CC(=O)C=C[C@@]43CCl)[C@@H]1CCC2=O`: 1.33 µM; for `CCC[C@H]1C[C@@H]2[C@H](CC[C@]3(C)C(=O)CC[C@@H]23)[C@@]2(C)CCCC=C12`: 0.23 µM.
On to `C[C@]12CCC(=O)C=C1C1C([C@@H]3[C@@H]2CC[C@]2(C)C(=O)CC[C@@H]32)C1(F)F` (stereo not given in full), for which the IC50 was 0.889 µM.
Take `C[C@]12CC[C@H]3[C@@H](CCC4=CC(=O)C=C[C@@]43CCl)[C@@H]1CCC2=O`: it took 0.951 µM to reach half-maximal inhibition (IC50).
With `C[C@]12CC[C@H]3[C@@H](CCC4=CC(=O)C=C[C@@]43CI)[C@@H]1CCC2=O`, 5.5 µM corresponded to half-maximal inhibition (IC50).
With `C[C@]12CCC(=O)C=C1[C@@H]1N[C@@H]1[C@@H]1[C@@H]2CC[C@]2(C)C(=O)CC[C@@H]12`, the midpoint of inhibition, the IC50, lay at 49.2 µM.
In the case of `CC[C@]12CCC(=O)C=C1C(=O)C[C@@H]1[C@@H]2CC[C@]2(C)C(=O)CC[C@@H]12`, the IC50 is 2.2 µM.
The same measure for `C[C@]12CC[C@H]3[C@@H](C[C@H]4O[C@]45C(=O)CCC[C@]35C=O)C1CCC2=O` (stereo not given in full): 210 µM; for `C[C@]12CCC3[C@@H](CC(=O)[C@]45O[C@H]4CCC[C@]35C=O)C1CCC2=O` (stereo not given in full): 150 µM; for `C[C@]12CCC(=O)c3nn(Cc4ccccc4)c(c31)C[C@@H]1[C@@H]2CC[C@]2(C)C(=O)CC[C@@H]12`: 0.245 µM.
The compound `C[C@]12CCC(=O)C=C1C1OC1[C@@H]1[C@@H]2CC[C@]2(C)C(=O)CC[C@@H]12` (stereo not given in full) had a half-inhibitory concentration (IC50) of 39 µM.
`C[C@]12CC[C@H]3[C@@H](C=CC4=CC(=O)C=C[C@@]43CI)[C@@H]1CCC2=O` gave an IC50 of 4.7 µM.
In turn, `CC1=C[C@@]2(C)C(=CC1=O)C(Br)C[C@@H]1[C@@H]2CC[C@]2(C)C(=O)CC[C@@H]12` (stereo not given in full) had an IC50 of 0.71 µM.
The compound `C[C@]12CCC(=O)c3c1c(nn3Cc1ccc([N+](=O)[O-])cc1)C[C@@H]1[C@@H]2CC[C@]2(C)C(=O)CC[C@@H]12` had an IC50 of 0.658 µM.
With `C[C@]12CC[C@H]3[C@@H](CCC4=CC(=O)CC[C@@]43C)[C@@H]1CC[C@@H]2OC(=O)CBr`, the IC50 was 50 µM.
`C[C@]12CCCC(=O)C1CC[C@@H]1[C@@H]2CC[C@]2(C)C(=O)CC[C@@H]12` (stereo not given in full) showed an IC50 of 2.4 µM.
In turn, `C[C@]12CCC(=O)c3nn(C/C=C/c4ccccc4)c(c31)C[C@@H]1[C@@H]2CC[C@]2(C)C(=O)CC[C@@H]12` had an IC50 of 0.951 µM.
In turn, `C[C@]12CC[C@H]3[C@@H](C=CC4=CC(=O)CC[C@@]43CBr)[C@@H]1CCC2=O` showed a half-inhibitory concentration (IC50) of 1.4 µM.
Under `C[C@]12CC[C@H]3[C@@H]([C@@H]4C[C@@H]4C4=CCCC[C@@]43C)[C@@H]1CC[C@@H]2O` stands 2.7 µM; under `C[C@]12CC[C@H]3[C@@H](CCC4=CC(=O)CC[C@@]43CBr)[C@@H]1CCC2=O`, 1.4 µM.
`C[C@]12CC[C@H]3[C@@H](C[C@H]4O[C@]45C(=O)CCC[C@]35C)C1CCC2=O` (stereo not given in full) gave an IC50 of 12.5 µM.
On to `C[C@]12CC[C@H]3[C@@H](CCC4=CC(=O)CC[C@@]43CI)[C@@H]1CCC2=O`, for which the IC50 was 4.1 µM.
Under `C[C@]12CCC(=O)c3c1c(nn3Cc1ccccc1)C[C@@H]1[C@@H]2CC[C@]2(C)C(=O)CC[C@@H]12` stands 0.342 µM; under `C[C@]12CCC(=O)c3nn(Cc4cccc([N+](=O)[O-])c4)c(c31)C[C@@H]1[C@@H]2CC[C@]2(C)C(=O)CC[C@@H]12`, 0.49 µM; under `C[C@]12CC[C@H]3[C@@H](CCC4=CC(=O)C=C[C@@]43CBr)[C@@H]1CCC2=O`, 1 µM.
Consider `CC(=O)O[C@@H]1CCC[C@@]2(CO)C1=CC[C@@H]1[C@@H]2CC[C@]2(C)C(=O)CC[C@@H]12`, for which the midpoint of inhibition, the IC50, lay at 11 µM.
Compound `C[C@]12CC[C@H]3[C@@H](C=CC4=CC(=O)CC[C@@]43CI)[C@@H]1CCC2=O` had an IC50 of 6.1 µM.
Consider `C[C@]12CCC(=O)C=C1[C@H](OC(=O)CBr)C[C@@H]1[C@@H]2CC[C@]2(C)C(=O)CC[C@@H]12`, for which the IC50 was 45 µM.
Under `CC(=O)OC1[C@@H]2[C@H](CC[C@]3(C)C(=O)CC[C@@H]23)[C@@]2(C)CCC(=O)C=C2[C@@H]1N=[N+]=[N-]` (stereo not given in full) stands 0.4 µM; under `Cc1ccc(S(=O)(=O)N2[C@@H]3[C@@H]4[C@H](CC[C@]5(C)C(=O)CC[C@@H]45)[C@@]4(C)CCC(=O)C=C4[C@@H]32)cc1` (stereo not given in full), 53.8 µM; under `CC(=O)N1[C@H]2[C@@H]3[C@H](CC[C@]4(C)C(=O)CC[C@@H]34)[C@@]3(C)CCC(=O)C=C3[C@H]21`, 64.6 µM.
The same measure for `C[C@]12CCCC=C1[C@H]1C[C@H]1[C@@H]1[C@@H]2CC[C@]2(C)C(=O)CC[C@@H]12`: 0.15 µM; for `CCCCCC[C@H]1C[C@@H]2[C@H](CC[C@]3(C)C(=O)CC[C@@H]23)[C@@]2(C)CCCC=C12`: 8.99 µM.
For `CC(=O)O[C@H]1C2=CC(=O)CC[C@]2(C)[C@H]2CC[C@]3(C)C(=O)CC[C@H]3[C@@H]2C1N=[N+]=[N-]` (stereo not given in full), it took 23.1 µM to reach half-maximal inhibition (IC50).
The same measure for `C[C@]12CC[C@H]3[C@@H](CC(=O)[C@]45O[C@H]4CCC[C@]35C)C1CCC2=O` (stereo not given in full): 11.5 µM; for `C[C@]12CC[C@H]3[C@@H](CC(=O)C4=CC(=O)CC[C@@]43C)[C@@H]1CC[C@@H]2OC(=O)CBr`: 42 µM.

A word on the IC50: it is the concentration needed to halve the response being measured. Read a high IC50 as a need for much substance.
